The record followed here is ChEMBL document CHEMBL1136856, “Synthesis of 5-isoxazol-5-yl-2'-deoxyuridines exhibiting antiviral activity against HSV and several RNA viruses” (Bioorg Med Chem Lett, 2009).

Common to all, as to type: functional, organism-based
The test system of test [1] is Human alphaherpesvirus 1. In words: Antiviral activity against HSV1 assessed as inhibition of virus-induced cytopathicity. Background: Protection from cytopathic effect is a common read-out in antiviral testing.
Test [2] concerns Human alphaherpesvirus 2. In words: Antiviral activity against HSV2 assessed as inhibition of virus-induced cytopathicity.
The test system of test [3] is Encephalomyocarditis virus. In words: Antiviral activity against EMCV assessed as inhibition of virus-induced cytopathicity. The note with it: Cardiovirus A.
The test system of test [4] is Coxsackievirus B3. In words: Antiviral activity against Coxsackievirus B3 assessed as inhibition of virus-induced cytopathicity. The note with it: Enterovirus B.
In test [5] the test system is Vesicular stomatitis virus. Nature of the test: Antiviral activity against VSV assessed as inhibition of virus-induced cytopathicity.
In test [6] the test system is Human immunodeficiency virus. In words: Antiviral activity against HIV assessed as inhibition of virus-induced cytopathicity.
Test [7] deals with Influenza A virus. Nature of the test: Antiviral activity against influenza A virus Taiwan assessed as inhibition of virus-induced cytopathicity.
Test [8] concerns Coronaviridae. In words: Antiviral activity against Coronavirus assessed as inhibition of virus-induced cytopathicity.
In test [9] the test system is Influenza A virus. In words: Antiviral activity against influenza A virus Seoul assessed as inhibition of virus-induced cytopathicity.
Test [10] has as its system Influenza A virus. Nature of the test: Antiviral activity against influenza A virus Panama assessed as inhibition of virus-induced cytopathicity.

SMILES strings stand for the structures. Converted amounts (≈) assume the structure as drawn. The source made the active and inactive calls. The rule behind the calls is not given here.

The term EC50 denotes the concentration at which the effect is half-maximal. On to `Nc1nc2c(ncn2COCCO)c(=O)[nH]1` [ACYCLOVIR], for which the EC50 in [1] was 0.18 µg/mL (≈ 0.799 µM); in test [2], 0.36 µg/mL (≈ 1.6 µM).

With `CC(C)c1ccc(-c2cc(-c3cn([C@H]4C[C@H](O)[C@@H](CO)O4)c(=O)[nH]c3=O)on2)cc1`, the EC50 in test [1] is 0.09 µg/mL (≈ 0.218 µM); in test [2], 0.09 µg/mL (≈ 0.218 µM); in test [3] it was 0.02 µg/mL (≈ 0.0484 µM); in test [4], 0.03 µg/mL (≈ 0.0726 µM); in test [5], above 0.07 µg/mL. Also, the result in test [6], in test [7], in test [8], in test [9] and in [10] was inactive.

For `CC(=O)OC[C@H]1O[C@@H](n2cc(-c3cc(-c4ccc(C(C)(C)C)cc4)no3)c(=O)[nH]c2=O)C[C@@H]1OC(C)=O`, the EC50 was above 0.06 µg/mL in test [1]; 0.03 µg/mL (≈ 0.0586 µM) in [2]; 0.01 µg/mL (≈ 0.0195 µM) in test [3]; 0.01 µg/mL (≈ 0.0195 µM) in [4]; 0.03 µg/mL (≈ 0.0586 µM) in test [5]. Moreover, the result in test [6], in test [7], in [8], in test [9] and in test [10] was inactive.

As for `CC(=O)OC[C@H]1O[C@@H](n2cc(-c3cc(-c4ccc(C(C)C)cc4)no3)c(=O)[nH]c2=O)C[C@@H]1OC(C)=O`, the EC50 is 0.08 µg/mL (≈ 0.161 µM) in [1]; 0.07 µg/mL (≈ 0.141 µM) in test [2]; 0.01 µg/mL (≈ 0.0201 µM) in test [3]; 0.01 µg/mL (≈ 0.0201 µM) in test [4]; 0.03 µg/mL (≈ 0.0603 µM) in [5]. Besides, the result in [6], in test [7], in test [8], in test [9] and in [10] was inactive.

On to `NC(=O)c1ncn([C@@H]2O[C@H](CO)[C@@H](O)[C@H]2O)n1` [RIBAVIRIN], for which, in test [3], the EC50 came to 0.02 µg/mL (≈ 0.0819 µM).

As for `Nc1ccn([C@@H]2O[C@H](CO)[C@@H](O)[C@@H]2O)c(=O)n1` [CYTARABINE], the EC50 in [1] turned out to be 0.2 µg/mL (≈ 0.822 µM); in [2] it was 0.52 µg/mL (≈ 2.14 µM).
